The record followed here is patent US20230263826A1, “Compositions and Methods for Treatment and Prevention of Type 1 Diabetes” (The UAB Research Foundation, priority 2021, published 2023).

In this experiment the test system is female NOD mice. Briefly: Plasma lipidomics in FKGK18- and PBS-T-treated NOD mice that developed T1D. Type of experiment: in vivo, mouse. The note with it: treatment initiated at 10 days or 4 weeks of age. As to the method:
FIGS. 11A-11I show a comparison of select plasma lipids in diabetic NOD mice. NOD mice were treated with PBS-Tor with FKGK18, starting at 10 days or 4 weeks of age, and sacrificed at the onset of diabetes. Plasma was prepared from these mice and processed for lipidomics analyses. The data (mean±SEM) represent pmol of each lipid species in 100 or 50 µL plasma fo LTC4 (FIG. 11A), 15-HETE (FIG. 11B), 5-HETE (FIG. 11C), PGD2 (FIG. 11D), AA (FIG. 11E), So1P/So (FIG. 11F), EET/DHET (FIG. 11G), resolving D2 (FIG. 11H), and DHA (FIG. 11I). (Statistical analyses: Students′ t-test. N=4/group.).
Next, to determine if a proinflammatory landscape persists until T1D onset, Applicants performed lipidomic analyses with plasma from FKGK18- and PBS-T-treated NOD (starting at 10 days). […] Furthermore, the ratio of So1P/So was higher in diabetic PBS-T-NOD, in comparison with nondiabetic PBS-T- or FKGK18-treated NOD (FIG. 6F). […]
Analysis of sphingolipids, eicosanoids, and fatty acids by ultra performance liquid chromatography-electrospray ionization-tandem mass spectrometry. […] Sphingolipids, eicosanoids, and fatty acids were analyzed via mass spectrometry using an AB Sciex Triple Quad 5500 Mass Spectrometer. […] The MΦ (2.75 × 10^6) were administered i.p. to 8-week-old female NOD, and diabetes incidence was recorded through weekly blood glucose monitoring.

As for `O=C(CCCCc1ccc2ccccc2c1)C(F)(F)F` [FKGK18], the “plasma PGD2 relative to PBS-T (d) groups” value (mice that developed T1D) is reported as “decrease”. Moreover, under “sacrificed at onset of diabetes, all lipids except PGD2”, the “plasma lipids vs PBS-T in mice that developed T1D” value is “no differences”.
